{
  "source": "patent US11725011B2",
  "about": "“Bicyclic urea kinase inhibitors and uses thereof” (The Broad Institute, Inc., priority 2016, dated 2023)",
  "test_in_all_cases": "KINOMEscan",
  "assay_type_in_all_cases": "binding",
  "details_in_all_cases": "1 uM",
  "key": {"[1]": {"molecular_target": "AAK1 (Homo sapiens (Human), UniProt Q2M2I8)"}, "[2]": {"molecular_target": "ABL1-phosphorylated (Homo sapiens (Human), UniProt P00519)"}, "[3]": {"molecular_target": "ACVRL1 (Homo sapiens (Human), UniProt P37023)", "sequence (P37023 22-503)": "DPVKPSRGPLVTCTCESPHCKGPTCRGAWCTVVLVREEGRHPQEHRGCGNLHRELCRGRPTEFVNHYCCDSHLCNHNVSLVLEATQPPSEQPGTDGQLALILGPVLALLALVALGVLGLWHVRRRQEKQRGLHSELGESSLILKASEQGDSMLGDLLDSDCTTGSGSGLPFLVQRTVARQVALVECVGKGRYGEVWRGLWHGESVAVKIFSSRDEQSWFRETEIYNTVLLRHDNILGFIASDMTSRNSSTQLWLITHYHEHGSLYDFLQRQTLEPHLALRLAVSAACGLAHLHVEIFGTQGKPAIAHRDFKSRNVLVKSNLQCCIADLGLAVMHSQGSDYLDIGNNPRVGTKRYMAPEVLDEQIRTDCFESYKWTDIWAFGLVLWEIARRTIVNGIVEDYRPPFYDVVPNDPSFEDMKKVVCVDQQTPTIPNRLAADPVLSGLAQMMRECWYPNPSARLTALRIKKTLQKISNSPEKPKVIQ"}, "[4]": {"molecular_target": "ADCK3 (Homo sapiens (Human), UniProt Q8NI60)"}, "[5]": {"molecular_target": "AURKB (Homo sapiens (Human), UniProt Q96GD4)"}, "[6]": {"molecular_target": "BMPR2 (Homo sapiens (Human), UniProt Q13873)", "sequence (Q13873 27-1038)": "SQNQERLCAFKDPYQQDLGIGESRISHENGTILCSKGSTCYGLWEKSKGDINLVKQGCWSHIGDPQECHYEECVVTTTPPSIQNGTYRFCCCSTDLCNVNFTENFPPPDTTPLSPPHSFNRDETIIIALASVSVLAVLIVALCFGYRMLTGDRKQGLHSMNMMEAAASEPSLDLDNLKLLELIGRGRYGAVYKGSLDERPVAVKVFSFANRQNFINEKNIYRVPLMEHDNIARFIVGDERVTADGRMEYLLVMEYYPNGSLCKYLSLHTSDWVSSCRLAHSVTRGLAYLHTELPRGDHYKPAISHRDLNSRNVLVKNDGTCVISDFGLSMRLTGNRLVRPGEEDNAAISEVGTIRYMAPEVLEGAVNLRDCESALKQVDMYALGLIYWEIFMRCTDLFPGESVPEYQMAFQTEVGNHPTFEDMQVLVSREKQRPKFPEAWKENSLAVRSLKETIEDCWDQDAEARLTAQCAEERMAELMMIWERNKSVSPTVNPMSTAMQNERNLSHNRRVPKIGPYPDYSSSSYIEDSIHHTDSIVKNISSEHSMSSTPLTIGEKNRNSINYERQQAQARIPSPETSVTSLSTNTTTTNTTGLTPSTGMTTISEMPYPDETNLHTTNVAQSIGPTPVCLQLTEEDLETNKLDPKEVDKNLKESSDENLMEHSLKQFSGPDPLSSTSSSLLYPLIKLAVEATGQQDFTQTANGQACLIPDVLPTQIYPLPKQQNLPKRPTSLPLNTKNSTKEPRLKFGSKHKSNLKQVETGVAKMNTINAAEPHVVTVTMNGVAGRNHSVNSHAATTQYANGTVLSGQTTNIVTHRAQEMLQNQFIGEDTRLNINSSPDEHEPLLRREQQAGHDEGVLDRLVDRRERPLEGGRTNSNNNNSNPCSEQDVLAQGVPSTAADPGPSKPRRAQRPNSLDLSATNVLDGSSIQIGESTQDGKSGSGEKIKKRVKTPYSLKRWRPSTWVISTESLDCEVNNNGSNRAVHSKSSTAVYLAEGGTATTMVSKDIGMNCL"}, "[7]": {"molecular_target": "CAMKK2 (Homo sapiens (Human), UniProt Q96RR4)"}, "[8]": {"molecular_target": "CDK4-cyclinD1 (Homo sapiens (Human), UniProt P11802)"}, "[9]": {"molecular_target": "CDKL5 (Homo sapiens (Human), UniProt O76039)"}, "[10]": {"molecular_target": "DAPK2 (Homo sapiens (Human), UniProt Q9UIK4)", "sequence (Q9UIK4 whole entry)": "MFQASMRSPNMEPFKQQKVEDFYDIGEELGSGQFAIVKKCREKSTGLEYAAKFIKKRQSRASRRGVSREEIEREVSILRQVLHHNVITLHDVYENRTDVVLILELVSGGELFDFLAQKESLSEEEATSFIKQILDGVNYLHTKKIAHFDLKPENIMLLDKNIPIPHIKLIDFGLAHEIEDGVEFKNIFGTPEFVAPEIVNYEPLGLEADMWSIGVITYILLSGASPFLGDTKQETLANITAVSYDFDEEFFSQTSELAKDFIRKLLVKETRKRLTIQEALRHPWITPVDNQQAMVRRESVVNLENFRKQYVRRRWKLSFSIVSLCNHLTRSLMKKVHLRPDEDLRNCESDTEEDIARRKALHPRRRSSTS"}, "[11]": {"molecular_target": "EGFR (L858R, T790M) (Homo sapiens (Human), UniProt P00533, L858R/T790M)"}, "[12]": {"molecular_target": "EPHA6 (Homo sapiens (Human), UniProt Q9UF33)"}, "[13]": {"molecular_target": "ERK1 (Homo sapiens (Human), UniProt P27361)"}, "[14]": {"molecular_target": "ERK3 (Homo sapiens (Human), UniProt Q16659)", "sequence (Q16659 whole entry)": "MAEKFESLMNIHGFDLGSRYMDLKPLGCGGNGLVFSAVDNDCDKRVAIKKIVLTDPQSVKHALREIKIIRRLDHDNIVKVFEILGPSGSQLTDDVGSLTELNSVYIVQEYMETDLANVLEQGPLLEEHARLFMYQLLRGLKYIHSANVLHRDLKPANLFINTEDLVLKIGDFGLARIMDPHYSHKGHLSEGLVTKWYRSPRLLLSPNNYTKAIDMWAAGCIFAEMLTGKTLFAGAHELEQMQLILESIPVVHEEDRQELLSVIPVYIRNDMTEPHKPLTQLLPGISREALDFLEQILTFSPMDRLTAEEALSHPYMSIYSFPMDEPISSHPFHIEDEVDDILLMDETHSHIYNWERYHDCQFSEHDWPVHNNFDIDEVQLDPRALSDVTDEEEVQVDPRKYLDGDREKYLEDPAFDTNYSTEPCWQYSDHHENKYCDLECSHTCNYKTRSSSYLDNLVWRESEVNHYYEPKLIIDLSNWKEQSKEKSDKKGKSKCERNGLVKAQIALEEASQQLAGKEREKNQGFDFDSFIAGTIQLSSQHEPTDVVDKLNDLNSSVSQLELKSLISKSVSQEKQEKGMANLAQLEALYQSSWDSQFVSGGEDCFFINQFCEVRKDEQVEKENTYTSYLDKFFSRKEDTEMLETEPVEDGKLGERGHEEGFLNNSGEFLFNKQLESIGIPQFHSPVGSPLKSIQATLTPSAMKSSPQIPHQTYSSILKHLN"}, "[15]": {"molecular_target": "FER (Homo sapiens (Human), UniProt P16591)"}, "[16]": {"molecular_target": "FGFR2 (Homo sapiens (Human), UniProt P21802)"}, "[17]": {"molecular_target": "FYN (Homo sapiens (Human), UniProt P06241)"}, "[18]": {"molecular_target": "HIPK4 (Homo sapiens (Human), UniProt Q8NE63)"}, "[19]": {"molecular_target": "IGF1R (Homo sapiens (Human), UniProt P08069)"}, "[20]": {"molecular_target": "JNK1 (Homo sapiens (Human), UniProt P45983)", "sequence (P45983 whole entry)": "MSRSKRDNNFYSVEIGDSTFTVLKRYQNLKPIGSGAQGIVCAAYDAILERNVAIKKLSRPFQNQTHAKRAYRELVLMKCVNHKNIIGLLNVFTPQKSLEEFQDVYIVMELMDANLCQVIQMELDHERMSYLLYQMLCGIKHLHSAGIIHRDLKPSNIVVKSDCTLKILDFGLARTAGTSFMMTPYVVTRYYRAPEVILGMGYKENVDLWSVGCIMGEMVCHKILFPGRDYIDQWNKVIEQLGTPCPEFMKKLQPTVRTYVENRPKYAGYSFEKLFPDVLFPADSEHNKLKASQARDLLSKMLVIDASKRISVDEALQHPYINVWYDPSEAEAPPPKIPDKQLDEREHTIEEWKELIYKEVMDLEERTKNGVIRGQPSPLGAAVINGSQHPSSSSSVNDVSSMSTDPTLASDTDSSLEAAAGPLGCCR"}, "[21]": {"molecular_target": "KIT (V559D, V654A) (Homo sapiens (Human), UniProt P10721, V559D/V654A)"}, "[22]": {"molecular_target": "MARK1 (Homo sapiens (Human), UniProt Q9P0L2)"}, "[23]": {"molecular_target": "MEK2 (Homo sapiens (Human), UniProt P36507)", "sequence (P36507 whole entry)": "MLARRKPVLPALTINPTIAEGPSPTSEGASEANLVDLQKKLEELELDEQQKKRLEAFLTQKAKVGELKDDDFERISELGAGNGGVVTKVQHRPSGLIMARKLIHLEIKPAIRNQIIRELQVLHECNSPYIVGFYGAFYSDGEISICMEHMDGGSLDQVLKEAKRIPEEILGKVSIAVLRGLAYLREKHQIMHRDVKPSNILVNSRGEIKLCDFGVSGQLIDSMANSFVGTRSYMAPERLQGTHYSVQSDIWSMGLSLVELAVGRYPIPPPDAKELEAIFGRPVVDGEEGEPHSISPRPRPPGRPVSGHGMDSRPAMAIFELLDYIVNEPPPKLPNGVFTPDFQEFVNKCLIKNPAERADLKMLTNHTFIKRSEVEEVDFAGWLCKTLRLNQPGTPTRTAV"}, "[24]": {"molecular_target": "MEK6 (Homo sapiens (Human), UniProt P52564)"}, "[25]": {"molecular_target": "MET (Y1235D) (Homo sapiens (Human), UniProt P08581, Y1235D)"}, "[26]": {"molecular_target": "MKK7 (Homo sapiens (Human), UniProt O14733)"}, "[27]": {"molecular_target": "MRCKB (Homo sapiens (Human), UniProt Q9Y5S2)"}, "[28]": {"molecular_target": "MTOR (Homo sapiens (Human), UniProt P42345)"}, "[29]": {"molecular_target": "NEK4 (Homo sapiens (Human), UniProt P51957)"}, "[30]": {"molecular_target": "NIK (Homo sapiens (Human), UniProt Q99558)"}, "[31]": {"molecular_target": "NIM1 (Homo sapiens (Human), UniProt Q8IY84)"}, "[32]": {"molecular_target": "PFPK5 (P. falciparum) (Plasmodium falciparum (isolate 3D7), UniProt P61075)"}, "[33]": {"molecular_target": "PHKG1 (Homo sapiens (Human), UniProt Q16816)", "sequence (Q16816 whole entry)": "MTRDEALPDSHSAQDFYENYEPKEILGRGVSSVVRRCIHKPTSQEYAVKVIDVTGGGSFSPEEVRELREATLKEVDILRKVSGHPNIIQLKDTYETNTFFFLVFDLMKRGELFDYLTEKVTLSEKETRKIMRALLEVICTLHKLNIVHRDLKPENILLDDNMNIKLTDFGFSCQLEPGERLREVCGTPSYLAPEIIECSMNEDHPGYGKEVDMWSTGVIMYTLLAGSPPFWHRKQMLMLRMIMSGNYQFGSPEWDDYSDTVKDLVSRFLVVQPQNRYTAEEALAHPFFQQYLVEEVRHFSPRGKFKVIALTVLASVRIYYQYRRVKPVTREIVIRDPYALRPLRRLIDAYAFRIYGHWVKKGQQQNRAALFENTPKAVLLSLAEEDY"}, "[34]": {"molecular_target": "PIK3C2G (Homo sapiens (Human), UniProt O75747)"}, "[35]": {"molecular_target": "RSK3 (Kin.Dom.1-N-terminal) (Homo sapiens (Human), UniProt Q15349)", "sequence (Q15349 59-318)": "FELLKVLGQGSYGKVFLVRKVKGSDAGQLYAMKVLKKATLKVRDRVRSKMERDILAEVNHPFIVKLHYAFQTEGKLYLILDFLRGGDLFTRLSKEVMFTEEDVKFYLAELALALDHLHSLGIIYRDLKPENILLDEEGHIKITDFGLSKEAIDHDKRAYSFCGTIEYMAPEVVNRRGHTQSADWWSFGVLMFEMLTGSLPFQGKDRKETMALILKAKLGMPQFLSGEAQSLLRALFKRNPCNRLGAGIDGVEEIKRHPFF"}, "[36]": {"molecular_target": "RSK4 (Kin.Dom.2-C-terminal) (Homo sapiens (Human), UniProt Q9UK32)", "sequence (Q9UK32 426-683)": "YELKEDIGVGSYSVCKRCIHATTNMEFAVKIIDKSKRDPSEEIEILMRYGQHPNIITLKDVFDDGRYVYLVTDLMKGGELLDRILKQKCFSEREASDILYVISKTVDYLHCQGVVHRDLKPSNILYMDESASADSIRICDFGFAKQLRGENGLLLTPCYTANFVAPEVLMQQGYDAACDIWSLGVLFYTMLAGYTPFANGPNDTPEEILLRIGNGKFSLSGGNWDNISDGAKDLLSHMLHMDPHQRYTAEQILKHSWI"}, "[37]": {"molecular_target": "SgK110 (Homo sapiens (Human), UniProt P0C264)", "sequence (P0C264 whole entry)": "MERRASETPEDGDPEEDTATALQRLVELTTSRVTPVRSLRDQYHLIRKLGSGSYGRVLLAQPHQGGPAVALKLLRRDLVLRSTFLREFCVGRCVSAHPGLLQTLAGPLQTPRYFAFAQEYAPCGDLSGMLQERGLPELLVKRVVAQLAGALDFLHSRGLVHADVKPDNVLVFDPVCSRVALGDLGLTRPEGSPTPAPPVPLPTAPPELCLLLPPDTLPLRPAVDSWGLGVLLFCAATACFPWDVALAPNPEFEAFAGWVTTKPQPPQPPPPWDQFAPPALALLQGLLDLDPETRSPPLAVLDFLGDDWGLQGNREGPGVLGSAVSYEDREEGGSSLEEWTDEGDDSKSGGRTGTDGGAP"}, "[38]": {"molecular_target": "TNIK (Homo sapiens (Human), UniProt Q9UKE5)"}, "[39]": {"molecular_target": "TYK2 (JH1domain-catalytic) (Homo sapiens (Human), UniProt P29597)", "sequence (P29597 897-1176)": "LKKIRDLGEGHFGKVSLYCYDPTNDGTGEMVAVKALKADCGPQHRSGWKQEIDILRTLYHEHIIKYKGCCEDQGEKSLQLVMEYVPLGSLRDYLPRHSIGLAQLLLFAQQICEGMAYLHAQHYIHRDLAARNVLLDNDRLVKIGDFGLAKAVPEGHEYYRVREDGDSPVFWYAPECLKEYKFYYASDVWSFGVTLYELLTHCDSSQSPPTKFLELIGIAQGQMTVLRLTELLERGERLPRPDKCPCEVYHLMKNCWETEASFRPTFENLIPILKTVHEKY"}, "[40]": {"molecular_target": "ULK2 (Homo sapiens (Human), UniProt Q8IYT8)"}},
  "data": [
    {"smiles": "COc1ccc(N2C(=O)N(c3c(C)cccc3C)Cc3cnc(Nc4ccc(N5CCN(C)CC5)cc4)nc32)c(OC)c1", "note": "[HG-11-136-01]", "values": [
      {"measurement": "KINOMEscan AAK1", "setting": "[1]", "value": 13},
      {"measurement": "KINOMEscan ABL1-phosphorylated", "setting": "[2]", "value": 0},
      {"measurement": "KINOMEscan ACVRL1", "setting": "[3]", "value": 16},
      {"measurement": "KINOMEscan ADCK3", "setting": "[4]", "value": 38},
      {"measurement": "KINOMEscan AURKB", "setting": "[5]", "value": 26},
      {"measurement": "KINOMEscan BMPR2", "setting": "[6]", "value": 77},
      {"measurement": "KINOMEscan CAMKK2", "setting": "[7]", "value": 100},
      {"measurement": "KINOMEscan CDK4-cyclinD1", "setting": "[8]", "value": 9},
      {"measurement": "KINOMEscan CDKL5", "setting": "[9]", "value": 98},
      {"measurement": "KINOMEscan DAPK2", "setting": "[10]", "value": 88},
      {"measurement": "KINOMEscan EGFR (L858R, T790M)", "setting": "[11]", "value": 1.7},
      {"measurement": "KINOMEscan EPHA6", "setting": "[12]", "value": 0.2},
      {"measurement": "KINOMEscan ERK1", "setting": "[13]", "value": 100},
      {"measurement": "KINOMEscan ERK3", "setting": "[14]", "value": 81},
      {"measurement": "KINOMEscan FER", "setting": "[15]", "value": 0.1},
      {"measurement": "KINOMEscan FGFR2", "setting": "[16]", "value": 0.8},
      {"measurement": "KINOMEscan FYN", "setting": "[17]", "value": 0.35},
      {"measurement": "KINOMEscan HIPK4", "setting": "[18]", "value": 51},
      {"measurement": "KINOMEscan IGF1R", "setting": "[19]", "value": 100},
      {"measurement": "KINOMEscan JNK1", "setting": "[20]", "value": 23},
      {"measurement": "KINOMEscan KIT (V559D, V654A)", "setting": "[21]", "value": 2.2},
      {"measurement": "KINOMEscan MARK1", "setting": "[22]", "value": 5.1},
      {"measurement": "KINOMEscan MEK2", "setting": "[23]", "value": 0.2},
      {"measurement": "KINOMEscan MEK6", "setting": "[24]", "value": 30},
      {"measurement": "KINOMEscan MET (Y1235D)", "setting": "[25]", "value": 61},
      {"measurement": "KINOMEscan MKK7", "setting": "[26]", "value": 80},
      {"measurement": "KINOMEscan MRCKB", "setting": "[27]", "value": 38},
      {"measurement": "KINOMEscan MTOR", "setting": "[28]", "value": 83},
      {"measurement": "KINOMEscan NEK4", "setting": "[29]", "value": 100},
      {"measurement": "KINOMEscan NIK", "setting": "[30]", "value": 36},
      {"measurement": "KINOMEscan NIM1", "setting": "[31]", "value": 42},
      {"measurement": "KINOMEscan PFPK5 (P. falciparum)", "setting": "[32]", "value": 96},
      {"measurement": "KINOMEscan PHKG1", "setting": "[33]", "value": 100},
      {"measurement": "KINOMEscan PIK3C2G", "setting": "[34]", "value": 87},
      {"measurement": "KINOMEscan RSK3 (Kin.Dom.1-N-terminal)", "setting": "[35]", "value": 40},
      {"measurement": "KINOMEscan RSK4 (Kin.Dom.2-C-terminal)", "setting": "[36]", "value": 4},
      {"measurement": "KINOMEscan SgK110", "setting": "[37]", "value": 8.6},
      {"measurement": "KINOMEscan TNIK", "setting": "[38]", "value": 2.8},
      {"measurement": "KINOMEscan TYK2 (JH1domain-catalytic)", "setting": "[39]", "value": 5.6},
      {"measurement": "KINOMEscan ULK2", "setting": "[40]", "value": 2.2}
    ]}
  ]
}
